The melting point is the temperature of the solid-liquid transition. Usually IC50 stands for the midpoint of a concentration-inhibition curve.

Entries after “also recorded” stand apart in the source; their conditions may differ. Like-named read-outs stand apart in the source and are kept apart here.

The results in this text go back to patent publication US20060089395A1, “Nf-kb activation inhibitors” (priority 2002, published 2006).

One data set has as its system NF-κ B. Kind of data set: Inhibitory activity of NF-κ B activation, luciferase reporter assay in HepG2 under TNF-α stimulation. The following applies: HepG2, TNF-α (40 ng/ml), 4 hours; for inhibition at 1 µg/mL / inhibition at 10 µg/mL: Homo sapiens; for inhibition at 1 µg/mL / Inhibitory Ratio of NF-κ B Activation(%) Drug Concentration 1 μg/mL: 1 μg/mL; for inhibition at 1 µg/mL: read-out: Inhibitory Ratio of NF-κ B Activation(%) Drug Concentration 1 μg/mL; for inhibition at 10 µg/mL / Inhibitory Ratio of NF-κ B Activation(%) Drug Concentration 10 μg/mL: 10 μg/mL; for inhibition at 10 µg/mL: read-out: Inhibitory Ratio of NF-κ B Activation(%) Drug Concentration 10 μg/mL. The format is cell-based, human. Summed up:
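Readout is firefly luciferase luminescence, expressed as inhibition versus compound-free wells. Before this, HepG2 cells carrying a transiently transfected 5×NF-κB-site luciferase plasmid (6–24 h post-transfection) received test compound plus TNF-α (40 ng/ml) for 4 h.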

Another data set deals with IL-6. Kind of data set: Inhibition of IL-6 production by TNFα stimulation in synovial fibroblasts derived from a rheumatoid patient (ELISA). The format is cell-based, human. The note with it: for IC50: synovial fibroblasts, 10 ng/ml TNFα, 3 days, read-out: Inhibition against Mediator Release IC50(nM) IL-6; for inhibition of the production of IL-6 (in words): rheumatic patient-derived synovial fibroblasts under TNFα stimulation. As for the experimental part: (§1) Synovial fibroblasts (Human Synoviocyte (RA-Positive), Toyobo, T4040-05) were cultured for 3 days in a medium containing 10 ng/ml of TNFα and a test compound. IL-6 and IL-8 in the supernatant were measured by the ELISA method, and PGE2 (prostaglandin E2) was measured by the EIA method.
On the technique in general: In an ELISA, binding on a coated surface is turned into a signal by an enzyme label.

A further data set concerns IL-8. Kind of data set: Inhibition of IL-8 production by TNFα stimulation in synovial fibroblasts derived from a rheumatoid patient (ELISA). The class given is cell-based, human. The note with it: for IC50: synovial fibroblasts, 10 ng/ml TNFα, 3 days, read-out: Inhibition against Mediator Release IC50(nM) IL-8; for inhibition of the production of IL-8 (in words): rheumatic patient-derived synovial fibroblasts under TNFα stimulation. As for the experimental part: as §1

In another data set the test system is PGE2. Kind of data set: Inhibition of PGE2 production by TNFα stimulation in synovial fibroblasts derived from a rheumatoid patient (EIA). The class given is cell-based, human. The note with it: for IC50: synovial fibroblasts, 10 ng/ml TNFα, 3 days, read-out: Inhibition against Mediator Release IC50(nM) PGE2; for inhibition of the production of PGE2 (in words): rheumatic patient-derived synovial fibroblasts under TNFα stimulation. As for the experimental part:
as §1

Data set [1] concerns Vascular smooth muscle cells of normal coronary artery (Cryo CASMC). Kind of data set: Inhibitory test against proliferation of vascular smooth muscle cells of normal coronary artery under proliferation stimulation (MTS assay). The note with it: FGF and EGF stimulation, 72 hours. The format is cell-based. As for the experimental part:
Vascular smooth muscle cells of normal coronary artery (Cryo CASMC) were cultured for 2 hours in the presence or absence of a test substance in DMEM medium containing 0.5% of FBS and insulin (5 u g/ml). Then, FGF and EGF were added for proliferation stimulation. The mixture was cultured for 72 hours and proliferation of the cells were measured by the MTS assay. The results aree shown in the following

Data set [2] deals with type II collagen induced arthritis. Nature of the data set: Inhibitory test against type II collagen induced arthritis in mice. The format is in vivo, Balb/c mice. The following applies: 10 mg/kg intraperitoneally once in two days; day 44; score of the control = 100%. As for the experimental part: Balb/c mice were immunized with heterologous type II collagen and Freund's complete adjuvant by subcutaneous or intraperitoneal injection. At 21 days after the treatment, these mice were immunized again with heterologous type II collagen and Freund's incomplete adjuvant by subcutaneous or intraperitoneal injection to develop arthritis.
A test substance suspended in an appropriate diluent or the diluent alone (negative control) was administered intraperitoneally once in two days from the day of the first immunization, and as for arthritis developed after the second immunization, clinical symptoms of each ankle joint of all foots were recorded day after day as numerous scores. When the score of the control measured on day 44 after administration of 10 mg/kg of the medicament of the present invention was expresses as 100%, rates of exacerbation (%) of the clinical symptoms of arthritis were 37.5 (Compound No. 4), 76.5 (Compound No. 90), 56.2 (Compound No. 11), 64.0 (Compound No. 88), and 0.0 (Compound No. 83).

Consider `O=C(Nc1cc(C(F)(F)F)cc(C(F)(F)F)c1)c1cc(C(=O)N2CCC(Cc3ccccc3)CC2)ccc1O` [Compound No. 40, N-[3,5-Bis(trifluoromethyl)phenyl]-2-hydroxy-5-(4-benzylpiperidine-1-carbonyl)benzamide], for which the melting point lay in the range of 179 to 180 °C. In addition, in the data set with NF-κ B, the inhibition at 1 µg/mL is 44.9% and the inhibition at 10 µg/mL is 96%.
For `O=C(Nc1cc(C(F)(F)F)cc(C(F)(F)F)c1)c1ccc(Cl)cc1O` [Compound No. 51], in the data set on NF-κ B, the “Inhibitory Ratio of NF-κ B Activation(%) Drug Concentration 1 μg/mL” value was determined as 90.5% and the “Inhibitory Ratio of NF-κ B Activation(%) Drug Concentration 10 μg/mL” value was 98.2%. Further, the IC50 with IL-6 amounted to 874 nM. In addition, the IC50 with IL-8 was determined as 832 nM. In addition, the IC50 with PGE2 was 863 nM. Besides, in data set [1], the “Inhibitory Ratio of Proliferation(%) Compound Concentration 250 nM” value stood at 26.2% and the “Inhibitory Ratio of Proliferation(%) Compound Concentration 500 nM” value was determined as 86.6%.
On to `O=C(Nc1cc(C(F)(F)F)ccc1C(F)(F)F)c1cc(Br)ccc1O` [Compound No. 83], for which, in the data set with NF-κ B, the “Inhibitory Ratio of NF-κ B Activation(%) Drug Concentration 1 μg/mL” value is recorded as 95.7% and the “Inhibitory Ratio of NF-κ B Activation(%) Drug Concentration 10 μg/mL” value was 98.3%. In the data set on IL-6, the “inhibition of the production of IL-6 (in words)” value (“inhibition … of IL-6 (in words)” below) is “potently inhibited; also recorded: strongly inhibited” and the IC50 was less than 10 nM. For the same compound, in the data set on IL-8, the “inhibition of the production of IL-8 (in words)” value (shortened to “inhibition … of IL-8 (in words)”) is listed as “potently inhibited; also recorded: strongly inhibited” and the IC50 worked out at 62 nM. In the data set with PGE2, the “inhibition of the production of PGE2 (in words)” value (“inhibition … of PGE2 (in words)” for short) is “potently inhibited; also recorded: strongly inhibited” and the IC50 was less than 10 nM. Moreover, the “rates of exacerbation (%) of the clinical symptoms of arthritis” value (“rates of exacerbation (%) … of arthritis” below) in data set [2] came out at 0.0%. In data set [1], the “Inhibitory Ratio of Proliferation(%) Compound Concentration 250 nM” value is recorded as 27.1% and the “Inhibitory Ratio of Proliferation(%) Compound Concentration 500 nM” value amounted to 87.9%.
As for `O=C(Nc1cc(C(F)(F)F)ccc1Cl)c1cc(Cl)ccc1O` [Compound No. 88, 5-chloro-N-[2-chloro-5-(trifluoromethyl)phenyl]-2-hydroxybenzamide], in the data set with NF-κ B, the inhibition at 1 µg/mL stood at 94.8% and the inhibition at 10 µg/mL was 97.1%. In addition, the IC50 in the data set on IL-6 (Homo sapiens, Fibroblast, 72 h) was determined as 88 nM. In addition, in the data set on IL-6, the “inhibition … of IL-6 (in words)” value is “potently inhibited; also recorded: strongly inhibited”. In addition, the “inhibition … of IL-8 (in words)” value with IL-8 is “potently inhibited; also recorded: strongly inhibited”. The IC50 with PGE2 (Homo sapiens, Fibroblast, 72 h) was determined as 33 nM. In the data set on PGE2, the “inhibition … of PGE2 (in words)” value was “potently inhibited; also recorded: strongly inhibited”. Moreover, in data set [2], the “rates of exacerbation (%) … of arthritis” value came out at 64.0%.
For `O=C(Nc1cc(C(F)(F)F)ccc1Cl)c1cc(Br)ccc1O` [Compound No. 90], in the data set on NF-κ B, the “Inhibitory Ratio of NF-κ B Activation(%) Drug Concentration 1 μg/mL” value stood at 88.9% and the “Inhibitory Ratio of NF-κ B Activation(%) Drug Concentration 10 μg/mL” value was determined as 94.1%. In the data set with IL-6, the “inhibition … of IL-6 (in words)” value was “potently inhibited; also recorded: strongly inhibited” and the concentration for half-maximal inhibition (IC50) worked out at 24 nM. Further, in the data set on IL-8, the “inhibition … of IL-8 (in words)” value is reported as “potently inhibited; also recorded: strongly inhibited” and the 50% inhibitory concentration (IC50) worked out at 373 nM. In the data set with PGE2, the “inhibition … of PGE2 (in words)” value was “potently inhibited; also recorded: strongly inhibited” and the IC50 came out at 38 nM. The “rates of exacerbation (%) … of arthritis” value in data set [2] worked out at 76.5%. Moreover, in data set [1], the “Inhibitory Ratio of Proliferation(%) Compound Concentration 250 nM” value is on record as 89.5% and the “Inhibitory Ratio of Proliferation(%) Compound Concentration 500 nM” value is listed as 95.2%.
Take `COc1cc(NC(=O)c2cc(Br)ccc2O)cc(C(F)(F)F)c1` [Compound No. 93]: the “Inhibitory Ratio of NF-κ B Activation(%) Drug Concentration 1 μg/mL” value with NF-κ B amounted to 84.5%. In addition, the “Inhibitory Ratio of NF-κ B Activation(%) Drug Concentration 10 μg/mL” value with NF-κ B came to 97.2%. In addition, the IC50 in the data set on IL-6 was determined as 130 nM; in the data set on IL-8, 753 nM; with PGE2, 47 nM. In addition, in data set [1], the “Inhibitory Ratio of Proliferation(%) Compound Concentration 250 nM” value was found to be 12.1%. The “Inhibitory Ratio of Proliferation(%) Compound Concentration 500 nM” value in data set [1] stood at 87.2%.
Turning to `CC(=O)Oc1ccccc1C(=O)Nc1cc(Cl)cc(Cl)c1` [Compound No. 120, 2-acetoxy-N-(3,5-dichlorophenyl)benzamide], the melting point is 218 to 219 °C. Moreover, in the data set on NF-κ B, the inhibition at 1 µg/mL is 88.6% and the inhibition at 10 µg/mL was 97.5%.
Turning to `CC(C)(C)C(=O)c1sc(NC(=O)c2cc(Br)ccc2O)nc1C(C)(C)C` [Compound No. 201], the “Inhibitory Ratio of NF-κ B Activation(%) Drug Concentration 1 μg/mL” value with NF-κ B is reported as 86.8%. For the same compound, the “Inhibitory Ratio of NF-κ B Activation(%) Drug Concentration 10 μg/mL” value in the data set with NF-κ B stood at 97.5%. The IC50 is 317 nM in the data set with IL-6, 599 nM in the data set on IL-8 and 53 nM with PGE2. Further, the “Inhibitory Ratio of Proliferation(%) Compound Concentration 250 nM” value in data set [1] was 59.8%. The “Inhibitory Ratio of Proliferation(%) Compound Concentration 500 nM” value in data set [1] worked out at 84.4%.
Regarding `CC(C)(C)c1nc(NC(=O)c2cc(Br)ccc2O)sc1N1CCN(c2ccccc2)CC1` [Compound No. 207, 5-Bromo-N-{4-[(1,1-dimethyl)ethyl]-5-(4-phenylpiperazin-1-yl)thiazol-2-yl}-2-hydroxybenzamide], in the data set with NF-κ B, the inhibition at 1 µg/mL amounted to 92.5% and the inhibition at 10 µg/mL came to 95.9%. Moreover, the IC50 with IL-6 (Homo sapiens, Fibroblast, 72 h) is 641 nM. Also, in the data set with IL-8 (Homo sapiens, Fibroblast, 72 h), the IC50 turned out to be 832 nM. In addition, in the data set on PGE2 (Homo sapiens, Fibroblast, 72 h), the IC50 worked out at 834 nM. In addition, in data set [1], the “Inhibitory Ratio of Proliferation(%) Compound Concentration 250 nM” value was 52.5% and the “Inhibitory Ratio of Proliferation(%) Compound Concentration 500 nM” value was determined as 84%.
Turning to `O=C(Nc1cc(C(F)(F)F)cc(C(F)(F)F)c1)c1cc(Br)ccc1O` [compound 6], the “Inhibitory Ratio of NF-κ B Activation(%) Drug Concentration 1 μg/mL” value with NF-κ B is listed as 94.9%. Also, the “Inhibitory Ratio of NF-κ B Activation(%) Drug Concentration 10 μg/mL” value in the data set with NF-κ B is on record as 98.6%. Further, the values for the IC50 with IL-6, in the data set with IL-8 and with PGE2 were 352 nM, 351 nM and 358 nM, respectively. For the same compound, the “Inhibitory Ratio of Proliferation(%) Compound Concentration 250 nM” value in data set [1] is given as 88.0%. For the same compound, the “Inhibitory Ratio of Proliferation(%) Compound Concentration 500 nM” value in data set [1] was 94.8%.
Consider `CC(C)(C)c1ccc(O)c(C(=O)Nc2cc(C(F)(F)F)cc(C(F)(F)F)c2)c1` [compound 11, N-[3,5-Bis(trifluoromethyl)phenyl]-5-[(1,1-dimethyl)ethyl]-2-hydroxybenzamide], for which, in the data set with NF-κ B, the inhibition at 1 µg/mL came out at 92.9% and the inhibition at 10 µg/mL turned out to be 98.3%. In addition, the IC50 in the data set on IL-6 (Homo sapiens, Fibroblast, 72 h) amounted to 247 nM. For the same compound, the IC50 in the data set on IL-8 (Homo sapiens, Fibroblast, 72 h) turned out to be 377 nM. Also, the concentration for half-maximal inhibition (IC50) with PGE2 (Homo sapiens, Fibroblast, 72 h) stood at 389 nM. The “rates of exacerbation (%) … of arthritis” value in data set [2] was 56.2%. In data set [1], the “Inhibitory Ratio of Proliferation(%) Compound Concentration 250 nM” value stood at 86.7% and the “Inhibitory Ratio of Proliferation(%) Compound Concentration 500 nM” value is on record as 91.4%.
